Reference: patent US20220267734A1, “HETEROGENEOUS STEM CELL POPULATION, PREPARATION METHOD THEREFOR AND USE THEREOF” (INSTITUTE OF BASIC MEDICAL SCIENCES, CHINESE ACADEMY OF …, priority 2019, published 2022)

How the values were obtained:
[1] = system: human brain pericytes (HBPs); assay: q-PCR gene expression in human brain pericytes under IL-1β with or without DAPT or PDTC; format: cell-based; conditions: for gene expression of TIMP-1: among control, IL-1β and IL-1β+inhibitor groups
Text: We added interleukin 1β (IL-1β) to Transwell in vitro blood-brain barrier model, and cultured human brain microvascular endothelial cells (HBMVECs), human brain pericytes (HBPs) and human brain astrocytes (HBAs) in vitro. We verified HBMVECs, HBPs and HBAs by immunofluorescence staining. Among them, HBMVEC was stained with the antibody against vWF; HBP was stained with the antibodies against α-SMA and NG2, and vWF and GFAP antibodies; and HBA was stained with GFAP antibody (FIG. 8B). […] HBPs were treated with IL-1β for 30 minutes followed by DAPT treatment for 24 hours, and were subjected to q-PCR quantification. It could be seen from FIG. 8E that, compared with the control group, the gene expression of NOTCH3 in the IL-1β group was increased; compared with the IL-1β group, the gene expression of NOTCH3 in the IL-1β+DAPT group was reduced.

[2] = system: subpluripotent stem cells; assay: IRISIN-induced differentiation into beige adipocytes (UCP1 marker); format: cell-based; conditions: marker protein UCP1 by real-time fluorescence quantification and western blotting, P<0.05
Text: In recent years, a new hormone IRISIN has been discovered, which is a muscle factor secreted after exercise. It is released from the cleavage of its precursor—fibronectin III domain containing 5 (Fndc5), and is involved in the function of the muscles, the cardiovascular system, the nerves and energy metabolism. In the process of energy regulation, IRISIN is a potential regulator in sugar metabolism. In this study, we used the heterogeneous stem cell population of the present invention as seed cells, and used IRISIN to induce them to differentiate into beige adipocytes (see FIG. 9).
The adipose tissue was washed twice with D-Hanks' solution containing dual antibiotics (penicillin, streptomycin), and centrifuged at 800 rpm for 3 min. The lower layer of the liquid after washing was removed with a pipette and the adipose tissue was transferred to a new centrifugation tube of 50 ml. 0.2% collagenase P was added for digestion. The tube was incubated in a shaker at a constant temperature of 37° C. for 30 min. An appropriate amount of D-Hanks' solution was added to the digested adipose tissue, which was then filtered with a […] cell sieve to remove undigested tissue. The mixture was centrifuged at 1500 rpm for 10 min. The upper layer of grease was removed with a pipette, then the supernatant was discarded and the cell pellet was re-suspended in D-Hanks' solution and washed once. […]

[3] = IL-1β 30 minutes then inhibitor 24 hours, compared with the IL-1β group
[4] = IL-1β group compared with the control group

For `C[C@H](NC(=O)Cc1cc(F)cc(F)c1)C(=O)N[C@H](C(=O)OC(C)(C)C)c1ccccc1` [DAPT], the “gene expression of MMP-9” value [1, 3] was “significantly lower”, the “gene expression of NF-κB p65” value [1, 3] was “significantly reduced” and the “gene expression of NOTCH3” value [1, 3] was “reduced”. For the same molecule, the “gene expression of TIMP-1” value [1] was “did not change much”.

With `N.S=C(S)N1CCCC1` [PDTC] the “gene expression of NOTCH3” value [1, 3] was “did not change much” and the “gene expression of TIMP-1” value [1] was “did not change significantly”.

With “IL-1β: interleukin 1β added to Transwell in vitro blood-brain barrier model” the “gene expression of MMP-9” value [1, 4] was “significantly increased”, the “gene expression of NF-κB p65” value [1, 4] was “significantly increased” and the “gene expression of NOTCH3” value [1, 4] was “increased”.

B1: IRISIN: muscle factor secreted after exercise, released by cleavage of Fndc5 (protein, UniProt Q8NAU1 1-191, looked up)
Irisin: MQAARGGAGRPERPGRPGRGPERERERPPGAGAASPCAAPGLPAGGATIHPGSPSAWPPRARAALRLWLGCVCFALVQADSPSAPVNVTVRHLKANSAVVSWDVLEDEVVIGFAISQQKKDVRMLRFIQEVNTTTRSCALWDLEEDTEYIVHVQAISIQGQSPASEPVLFKTPREAEKMASKNKDEVTMKE
modifications: Irisin
notes: muscle factor secreted after exercise, released by cleavage of Fndc5
In the case of B1, the “differentiation into beige adipocytes” value [2] is reported as “induces the differentiation”.
